Assay results published in US7087608B2, “Use of PDGF receptor tyrosine kinase inhibitors for the treatment of diabetic nephropathy” (priority 2000, dated 2006).

Tested on: male Wistar rats with anti-Thy-1 nephritis
Experiment: Mesangial proliferative glomerulonephritis (anti-Thy-1 nephritis) induced with OX-7 antibody
Format: in vivo, rat
Excerpt: Mesangial proliferative Glomerulonephritis induced in Male Wistar Rats with monoclonal OX-7, anti-rat Thy-1.1 Antibody
Monoclonal OX-7, anti-rat Thy-1.1 antibody is used for the induction of mesangial proliferative glomerulonephritis (D. W. Mason and A. F. Williams, Biochem. J. 187(1), 1980, 1–20), macrophages are detected using ED1, anti-rat CD68 (C. D. Dijkstra et al., Immunology 54(3), 1985, 589–99) myofibroblasts are identified by labelling with 1A4, anti-human a smooth muscle actin (Sigma Immunochemicals, St. Louis, Mo.) and M744, anti-BrdU (Dako, Glostrup, Denmark) is used to identify proliferating cells. A polyclonal goat anti-bovine/anti-human type IV collagen antibody (Southern Biotechnology, Birmingham, Ala.) is used to examine extracellular matrix.
Anti-Thy-1 nephritis is induced in two groups of 8 male Wistar rats (150–170 g) by i.v. injection of 5 mg/kg OX-7 IgG (D. J. Nikolic-Paterson et al., J. Am. Soc. Nephrol. 7(7), 1996, 1006–14). […] A group of 8 normal rats are also injected with BrdU 3 hours before sacrifice.
Twenty-four hour urine collections and blood samples are taken on days-3 (prior to test) and day 6. Urinary protein concentration is measured by the benzethonium chloride method (Iwata, J. et al., Clin. Chem. 25(7), 1979, 1317–9). Serum and urine creatinine levels are measured using the Jaffé rate reaction (Larsen, K., Clin. Chim. Acta 41, 1972, 209–17).
Tissues are fixed in 4% neutral buffered-formalin and embedded in paraffin. Kidney sections (4 μm) are stained with periodic-acid Schiff's reagent (PAS). Quantitation of nuclei is performed by examining 50 hilar glomeruli per animal.
Immunostaining is performed as described by Rumble et al., J. Clin. Invest. 99, 1997, 1016–1027. Double immunohistochemical staining is performed in formalin fixed tissue sections using a microwave-based technique to prevent antibody cross-reactivity (G. H. Tesch, et al, Am. J. Pathol. 151(1), 1997, 141–50).
Sections stained with either BrdU or ED1 antibody are scored for ED1+ or BrdU+. Counting is undertaken using a graticule to measure glomerular tuft area and confined to the glomerular tuft thereby omitting cells within the capillary lumen. Fifty glomeruli are scored for each animal and labelled cells expressed as the mean±SD per mm^2. In addition, the number of cells in double-labelled sections are also scored as ED1+BrdU+, ED1+BrdU− and ED1−BrdU+.
The magnitude of immunostaining for type IV collagen is quantified using computer assisted image analysis as previously described (H. A. Lehr et al., J. Histochem. Cytochem. 45(11), 1997, 1559–65).

[1] = 50 mg/kg daily i.p., day 6, 50 hilar glomeruli per animal, p<0.05

## Cc1ccc(NC(=O)c2ccc(CN3CCN(C)CC3)cc2)cc1Nc1nccc(-c2cccnc2)n1 [CGP 57148B, N-{5-[4-(4-methyl-piperazino-methyl)-benzoylamido]-2-methylphenyl}-4-(3-pyridyl)-2-pyrimidine-amine]
50 mg/kg daily i.p. from day 1 after OX-7 IgG, day 6, 24-hour urine
  Proteinuria: 16.4±7.0 mg/24 hours
50 mg/kg daily i.p., day 6, 50 hilar glomeruli per animal, p<0.001
  Mesangial cell (BrdU+ED1−) proliferation per glomerular cross section (FIG. 2): significantly reduced
[1]
  Glomerular hypercellularity, nuclei per glomerular cross section (FIG. 1): significantly reduced
  Number of activated mesangial cells (a-smooth muscle actin positive) (FIG. 3): significantly reduced
50 mg/kg daily i.p., day 6, image analysis, p<0.05 versus untreated rats
  Glomerular matrix accumulation of immunostainable type IV collagen (FIG. 4): significantly reduced
50 mg/kg daily i.p., killed on day 6
  Mesangial hypercellularity and increased mesangial matrix in PAS-stained kidney sections: not observed
